Results published in patent US10106498B2, “Compositions relating to vitamin D” (Siemens Healthcare Diagnostics Inc., priority 2014, dated 2018).
Several values for one entry are separate records, joined by “and”; a condition that tells them apart may be missing. Identical values can stand only once.

System: biotinylated monoclonal anti-25OH vitamin D antibody
Test: LOCI 25(OH)D immunoassay: 3-epimer cross-reactivity, no anti-3-epimer antibody added
Assay type: binding, sheep
Conditions: for Avg. Cross-reactivity, No anti-3-epimer VD Ab Added: average of ten patient sera spiked with 100 ng/mL 3-epimer vitamin D3
Description: The 25OH Vitamin D (25(OH)D) immunoassay format employed was a homogeneous competitive chemiluminescent immunoassay based on LOCI® assay technology. The assay was performed on the Siemens Dimension® EXL automated integrated clinical chemistry system (Siemens Healthcare Diagnostics Inc., Deerfield, Ill.). The assay measured the total concentration of 25(OH)D2 and/or 25(OH)D3 in serum and plasma samples. The LOCI® assay reagents included a releasing reagent, two synthetic bead reagents and a biotinylated monoclonal anti-25OH vitamin D antibody reagent. The first bead reagent (designated “Sensibeads”) was coated with streptavidin and contained a photosensitive dye. The second bead reagent (designated “Chemibeads”) was coated with a 25(OH)D3 analog and contained chemiluminescent dye. Sample was incubated with the releasing reagent to release 25(OH)D molecules including 3-epimeric compounds from vitamin D binding proteins. The reaction mixture was then incubated with biotinylated antibody to form a 25(OH)D-biotinylated antibody complex. […] Chemibeads were added to bind excess free biotinylated antibody. Sensibeads were then added to bind to the biotin portion of the biotinylated antibody. Aggregates of Chemibead-analog/antibody-biotin/streptavidin-Sensibeads were formed as a result. Illumination of the reaction mixture with light at 680 nm generates singlet oxygen from Sensibeads, which diffused into the Chemibeads and triggered a chemiluminescent reaction. The resulting chemiluminescent signal was measured at 612 nm and is inversely proportional to the concentration of total 25(OH)D in the sample.
The effect of adding anti-3-epimer-VD antibody 8F10.1 (anti-3-epimer VD Ab) on the 3-epimer cross-reactivity for the assay is shown in Table 1. […] The 3-epimer cross-reactivity was calculated by the difference between 25(OH)D2 or 25(OH)D3 values with and without the spiked 3-epimer compound divided by the amount of added 3-epimer compound.

## C=C1CC[C@@H](O)C/C1=C/C=C1\CCC[C@]2(C)[C@@H]([C@H](C)CCCC(C)(C)O)CC[C@@H]12 [3-epimer D3, 3-epi-25-hydroxyvitamin D3]
  Avg. Cross-reactivity, No anti-3-epimer VD Ab Added: 13.7%
Listed as 3-epimer vitamin D3 compound
  Avg. Cross-reactivity, No anti-3-epimer VD Ab Added: 13.7%
Individual patient sera (Sample ID 1-10) spiked with 100 ng/mL 3-epimer vitamin D3
  Cross-Reactivity, No anti-3-epimer VD Ab Added: 17.9% (2×) and 11.9% and 12.6% and 16.1% and 10.2% and 9.1% and 10.5% and 15.3% and 15.5%
